# Target: T1, mouse ANO2 (Mus musculus, UniProt Q8CFW1)
# T1 construct: expressed in transfected cells; host or cells: Fisher rat thyroid (FRT) cells, stably transfected, co-expressing halide sensor YFP
# T1 sequence (Q8CFW1 1-1002): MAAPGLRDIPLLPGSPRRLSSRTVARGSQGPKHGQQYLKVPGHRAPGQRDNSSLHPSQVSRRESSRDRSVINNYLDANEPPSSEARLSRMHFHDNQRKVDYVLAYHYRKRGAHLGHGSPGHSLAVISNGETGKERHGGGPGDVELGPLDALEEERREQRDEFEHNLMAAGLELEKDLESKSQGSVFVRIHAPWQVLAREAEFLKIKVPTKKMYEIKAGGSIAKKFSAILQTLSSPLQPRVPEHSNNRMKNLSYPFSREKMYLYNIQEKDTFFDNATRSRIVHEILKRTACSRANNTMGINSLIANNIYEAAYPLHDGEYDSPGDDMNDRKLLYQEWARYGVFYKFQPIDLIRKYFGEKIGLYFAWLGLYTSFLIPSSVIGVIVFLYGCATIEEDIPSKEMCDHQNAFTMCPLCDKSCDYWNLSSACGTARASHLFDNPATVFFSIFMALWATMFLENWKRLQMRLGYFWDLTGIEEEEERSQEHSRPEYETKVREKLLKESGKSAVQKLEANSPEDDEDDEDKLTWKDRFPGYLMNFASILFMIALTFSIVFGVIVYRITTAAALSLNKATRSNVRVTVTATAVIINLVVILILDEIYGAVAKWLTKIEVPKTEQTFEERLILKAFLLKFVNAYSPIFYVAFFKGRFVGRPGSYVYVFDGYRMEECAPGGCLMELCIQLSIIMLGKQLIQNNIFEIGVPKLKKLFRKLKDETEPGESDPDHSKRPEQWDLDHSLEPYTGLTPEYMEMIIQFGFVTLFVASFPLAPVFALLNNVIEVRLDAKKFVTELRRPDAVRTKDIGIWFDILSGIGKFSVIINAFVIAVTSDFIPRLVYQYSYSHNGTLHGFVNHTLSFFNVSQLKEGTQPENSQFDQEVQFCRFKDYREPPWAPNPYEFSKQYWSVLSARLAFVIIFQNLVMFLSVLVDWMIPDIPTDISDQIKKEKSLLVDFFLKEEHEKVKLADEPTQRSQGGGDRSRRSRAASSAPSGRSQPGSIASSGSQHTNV
# Assay: YFP quenching assay in FRT cells expressing mouse ANO2
# Assay type: cell-based
# Conditions: FRT cells expressing mouse ANO2 and YFP; read-out: IC50, ATP-induced activation of ANO2
# Description: Fisher rat thyroid (FRT) cells were stably transfected with human ANO1 (abc) or mouse ANO2 and the halide sensor YFP as described in previous study. FRT cells were cultured in Coon`s modified F12 medium with 10% FBS, 2 mM L-glutamine, 100 units/ml penicillin and 100 μg/ml streptomycin at 37°C and 5% CO2. PC-3 cells were grown in RPMI 1640 medium supplemented with 10% FBS, 100 units/ml penicillin and 100 μg/ml streptomycin at 37°C and 5% CO2. There were populations of PC-3 cells with high and low expression of ANO1. […]
# ANO1 and YFP expressing FRT cells were plated in 96-well black-walled microplates (Corning Inc., Corning, NY) at a density of 20,000 cells per well. Assays were done using FLUOstar Omega microplate reader (BMG Labtech, Ortenberg, Germany) and MARS Data Analysis Software (BMG Labtech) as described in our previous study. […] After 10 minutes incubation at 37°C, 96-well plates were transferred to the plate reader for fluorescence assay. Each well was assayed individually for ANO1-mediated I^- influx by monitoring YFP fluorescence continuously (400 ms per point) for 2 s (baseline), then 140 mM I^- solution containing 200 μM ATP was added at 2 s and then YFP fluorescence was recorded for 6 s. Initial iodide influx rate was determined from the initial slope of fluorescence decrease, by nonlinear regression, following infusion of iodide with ATP.
smiles,measurement,value
O=c1cc(-c2ccc(O)c(O)c2)oc2cc(O)cc(O)c12 [luteolin],IC50,~120 µM

# Source: article PMC5376326, “Inhibition of ANO1 by luteolin and its cytotoxicity in human prostate cancer PC-3 cells” (PLoS ONE, 2017)
